In the supplement of paper PMC6045584:
± gives the standard deviation of the averaged measurements.

compound: Oc1ccc(/C=C/c2cc(O)cc(O)c2)cc1 [RESVERATROL]; experiment: surviving fraction relative to DMSO-only wells; higher = less growth inhibition; details: 1000 nM; exposure time: 5 days
How it was run: (§1)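 Lines were retained only if, across three screens, replicate Pearson r was >0.7 and median Z' was >0.3. Viability was measured as CellTiter-Glo luminescence and reported as surviving fraction relative to the median of DMSO-only wells. Readings followed 10 minutes at room temperature, after log-phase tumour cells seeded at 250–500 per well in 384-well plates had been exposed, from 24 hours after seeding, continuously for five days to inhibitors at 0.5, 1, 5, 10, 50, 100, 500 and 1000 nM.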

In order of rising surviving fraction:
1. HS57T BREAST  0.998 ± 0.11
2. HCC70 BREAST  0.999 ± 0.022
3. G292 BONE  1.03 ± 0.045
4. HCC38 BREAST  1.18 ± 0.18

compound: CC[C@@H](C(=O)[C@@H](C)[C@@H](O)[C@H](C)[C@@H]1O[C@@H]([C@@H](CC)C(=O)O)CC[C@@H]1C)[C@H]1O[C@]2(C=C[C@@H](O)[C@]3(CC[C@@](C)([C@H]4CC[C@](O)(CC)[C@H](C)O4)O3)O2)[C@H](C)C[C@@H]1C [SALINOMYCIN]; experiment: as above; details: 0.5 nM; exposure time: 5 days
How it was run: as §1

In order of falling surviving fraction:
1. HCC38 BREAST  1.26 ± 0.26
2. HMT3552 BREAST  1.07
3. HS57T BREAST  0.986 ± 0.077
4. G292 BONE  0.971 ± 0.016
5. HCC70 BREAST  0.915 ± 0.055
6. HMLE3 BREAST  0.898 ± 0.036
7. HS578T BREAST  0.874 ± 0.12

same assay, conditions: 1 nM; exposure time: 5 days

In order of falling surviving fraction:
1. HCC38 BREAST  1.14 ± 0.15
2. HCC70 BREAST  1.011 ± 0.0081
3. HMT3552 BREAST  1
4. G292 BONE  0.967 ± 0.055
5. HS57T BREAST  0.949 ± 0.062
6. HMLE3 BREAST  0.894 ± 0.1
7. HS578T BREAST  0.894 ± 0.036

same assay, conditions: 5 nM; exposure time: 5 days

In order of rising surviving fraction:
1. HS578T BREAST  0.993 ± 0.16
2. G292 BONE  1 ± 0.086
3. HMLE3 BREAST  1.02 ± 0.028
4. HCC70 BREAST  1.02 ± 0.035
5. HMT3552 BREAST  1.07
6. HS57T BREAST  1.07 ± 0.057
7. HCC38 BREAST  1.3 ± 0.19

same assay, conditions: 10 nM; exposure time: 5 days

In order of rising surviving fraction:
1. HMLE3 BREAST  0.926 ± 0.09
2. G292 BONE  0.966 ± 0.046
3. HCC70 BREAST  0.973 ± 0.022
4. HS578T BREAST  1.01 ± 0.11
5. HS57T BREAST  1.03 ± 0.042
6. HMT3552 BREAST  1.11
7. HCC38 BREAST  1.26 ± 0.081

same assay, conditions: 50 nM; exposure time: 5 days

In order of falling surviving fraction:
1. HMLE3 BREAST  1.19 ± 0.032
2. HMT3552 BREAST  1.13
3. HS578T BREAST  1.05 ± 0.076
4. HCC38 BREAST  1.05 ± 0.14
5. HS57T BREAST  1.03 ± 0.013
6. HCC70 BREAST  0.948 ± 0.11
7. G292 BONE  0.932 ± 0.017

same assay, conditions: 100 nM; exposure time: 5 days

In order of falling surviving fraction:
1. HMT3552 BREAST  1.05
2. HMLE3 BREAST  0.988 ± 0.028
3. HCC38 BREAST  0.862 ± 0.2
4. G292 BONE  0.828 ± 0.013
5. HS578T BREAST  0.826 ± 0.096
6. HS57T BREAST  0.813 ± 0.036
7. HCC70 BREAST  0.671 ± 0.061

same assay, conditions: 500 nM; exposure time: 5 days

In order of rising surviving fraction:
1. HMLE3 BREAST  0.056 ± 0.0095
2. G292 BONE  0.204 ± 0.011
3. HCC70 BREAST  0.251 ± 0.011
4. HS57T BREAST  0.28 ± 0.02
5. HCC38 BREAST  0.415 ± 0.03
6. HS578T BREAST  0.589 ± 0.033
7. HMT3552 BREAST  0.801

same assay, conditions: 1000 nM; exposure time: 5 days

In order of rising surviving fraction:
1. HMLE3 BREAST  0.0347 ± 0.0042
2. G292 BONE  0.146 ± 0.0081
3. HCC70 BREAST  0.147 ± 0.015
4. HS57T BREAST  0.158 ± 0.011
5. HCC38 BREAST  0.317 ± 0.052
6. HS578T BREAST  0.526 ± 0.041
7. HMT3552 BREAST  0.728
